According to publication doi:10.1101/2025.07.02.662713v1, “A FRET-based high-throughput screening assay for the discovery of Mycobacterium tuberculosis DNA ADP-ribosylglycohydrolase DarG inhibitors” (biorxiv, 2025):

Key:
[1] = target: T1, MtbDarG MD; CFP-MtbDarG MD (Mycobacterium tuberculosis, UniProt O53605); test: FRET displacement of PARylated YFP-GAP; type: binding
T1 construct: gene darG

SCO6735 = target: T2, SCO6735 (Streptomyces coelicolor, UniProt Q9X7P1); test: gel-based ADP-ribosyl-ssDNA hydrolysis assay; type: biochemical; conditions: 1 µM hydrolase, pranlukast 2-250 µM, pre-incubation 10 min; Tris pH 7.5, 37 °C, 30 min
T2 construct: recombinant, prepared as previously published
T2 sequence (Q9X7P1 1-161): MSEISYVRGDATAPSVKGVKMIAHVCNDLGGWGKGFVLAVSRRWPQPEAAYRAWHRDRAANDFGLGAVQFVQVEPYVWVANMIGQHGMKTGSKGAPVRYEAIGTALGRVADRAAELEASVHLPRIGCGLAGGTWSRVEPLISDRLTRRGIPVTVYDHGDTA

PARP15 MD1 = target: T3, PARP15 MD1 (Homo sapiens, UniProt Q460N3); test: FRET displacement of MARylated YFP-GAP; type: binding
T3 construct: macrodomain 1 only, CFP fusion, produced as described earlier
T3 sequence (Q460N3 78-267 limits assumed): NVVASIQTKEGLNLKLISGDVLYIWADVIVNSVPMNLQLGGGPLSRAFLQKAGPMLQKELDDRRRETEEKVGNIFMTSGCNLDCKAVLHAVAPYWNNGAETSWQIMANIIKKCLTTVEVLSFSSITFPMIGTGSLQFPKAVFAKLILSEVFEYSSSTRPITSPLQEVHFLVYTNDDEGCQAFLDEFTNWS

T. aq. DarG; T.aq. DarG = target: T4, T. aq. DarG; T.aq. DarG (Thermus aquaticus, UniProt P0DV57); test: gel-based ADP-ribosyl-ssDNA hydrolysis assay; type: biochemical; conditions: 1 µM hydrolase, pranlukast 2-250 µM, pre-incubation 10 min; Tris pH 7.5, 37 °C, 30 min
T4 construct: recombinant, prepared as previously published
T4 sequence (P0DV57 1-360): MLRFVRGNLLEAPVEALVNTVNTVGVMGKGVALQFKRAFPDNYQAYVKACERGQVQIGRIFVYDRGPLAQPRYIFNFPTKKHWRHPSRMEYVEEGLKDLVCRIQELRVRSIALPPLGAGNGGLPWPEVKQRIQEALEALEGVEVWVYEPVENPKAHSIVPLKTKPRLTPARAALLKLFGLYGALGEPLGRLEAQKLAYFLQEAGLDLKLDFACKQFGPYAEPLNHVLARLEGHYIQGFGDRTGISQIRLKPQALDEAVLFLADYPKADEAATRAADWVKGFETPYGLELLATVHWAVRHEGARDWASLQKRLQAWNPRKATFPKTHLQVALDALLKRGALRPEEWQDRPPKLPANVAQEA
Excerpt: gel-based ADP-ribosyl-ssDNA hydrolysis assay on T. aq. DarG; T.aq.

[2] = target: T5, MtbDarG (hydrolysis assay) (Mycobacterium tuberculosis, UniProt O53605); test: gel-based ADP-ribosyl-ssDNA hydrolysis assay; type: biochemical; conditions: 1 µM hydrolase, pranlukast 2-250 µM, pre-incubation 10 min; Tris pH 7.5, 37 °C, 30 min
T5 construct: gene darG
T5 sequence (O53605 whole entry): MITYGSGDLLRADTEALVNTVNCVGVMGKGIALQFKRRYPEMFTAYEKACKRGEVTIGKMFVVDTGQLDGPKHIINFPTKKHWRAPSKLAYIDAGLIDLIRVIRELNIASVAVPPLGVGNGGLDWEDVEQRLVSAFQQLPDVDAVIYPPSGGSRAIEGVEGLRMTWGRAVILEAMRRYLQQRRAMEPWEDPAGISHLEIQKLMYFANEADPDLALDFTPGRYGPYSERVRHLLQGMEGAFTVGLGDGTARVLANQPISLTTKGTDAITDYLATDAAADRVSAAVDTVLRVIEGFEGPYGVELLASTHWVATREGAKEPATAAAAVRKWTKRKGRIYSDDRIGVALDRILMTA

PARP14 MD1 = target: T6, PARP14 MD1 (Homo sapiens, UniProt Q460N5); test: FRET displacement of MARylated YFP-GAP; type: binding
T6 construct: macrodomain 1 only, CFP fusion, produced as described earlier
T6 sequence (Q460N5 791-978 limits assumed): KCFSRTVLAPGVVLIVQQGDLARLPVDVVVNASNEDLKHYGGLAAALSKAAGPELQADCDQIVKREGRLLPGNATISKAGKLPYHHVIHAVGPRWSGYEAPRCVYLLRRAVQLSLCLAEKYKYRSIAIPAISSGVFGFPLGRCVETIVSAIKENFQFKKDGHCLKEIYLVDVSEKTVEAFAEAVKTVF

PARP9 MD1 = target: T7, PARP9 MD1 (Homo sapiens, UniProt Q8IXQ6); test: FRET displacement of MARylated YFP-GAP; type: binding
T7 construct: macrodomain 1 only, CFP fusion, produced as described earlier

T1 sequence (O53605 1-155): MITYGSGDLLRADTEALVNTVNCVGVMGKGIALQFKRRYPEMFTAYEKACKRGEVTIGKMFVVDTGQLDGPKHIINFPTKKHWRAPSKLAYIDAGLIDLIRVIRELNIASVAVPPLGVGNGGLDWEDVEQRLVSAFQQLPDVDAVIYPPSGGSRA

## COc1ccc(-c2ccccc2)cc1NS(=O)(=O)c1cc(Cl)cc(Cl)c1O [BMS303141]
[1]
  IC50: 18.7 µM

## Cc1cc(SCc2sc(-c3ccc(C(F)(F)F)cc3)nc2C)ccc1OCC(=O)O [GW501516]
[1]
  IC50: 56.5 µM

## O=C(Nc1cccc2c(=O)cc(-c3nn[nH]n3)oc12)c1ccc(OCCCCc2ccccc2)cc1 [pranlukast]
SCO6735
  gel-based ADP-ribosyl-ssDNA hydrolysis assay: DarG from Thermus aquaticus bacterium (T.aq. DarG) and SCO6735
PARP15 MD1
  IC50: ~100 µM
T. aq. DarG; T.aq. DarG
  gel-based ADP-ribosyl-ssDNA hydrolysis assay: pranlukast exhibited an even higher inhibitory potency against DarG from Thermus aquaticus bacterium
[2]
  gel-based ADP-ribosyl-ssDNA hydrolysis assay: pranlukast inhibited the enzymatic activity of MtbDarG on this ADP-ribosylated ssDNA substrate
[1]
  IC50: 4 µM
PARP14 MD1
  IC50: ~100 µM
PARP9 MD1
  IC50: ~100 µM

## O=C(O)C(=O)c1cn(Cc2ccccc2)c2ccc(-c3ccc(OC(F)(F)F)cc3)cc12 [tiplaxtinin]
[1]
  IC50: 5.7 µM
